Consider 88 compounds from a melting point compilation (Tetko et al.; mined from patent text by program, amines drawn as free bases though some values may be those of a salt).

Residues, ends and D or L forms follow the SMILES beside them.

The melting point is the temperature, or range, at which the solid turns liquid. `COc1ccc(C(=O)Nc2c(-c3cc(Cl)ccc3O)c3cc(C(F)(F)F)ccc3[nH]c2=O)cc1` registered a melting point of 285 to 287 °C. Under `CN(C)Cc1c(-c2ccccc2)nc2c(C(=O)NC(C#N)c3cccc(F)c3)cccn12` (stereo not drawn) stands 123 to 124 °C; under `Cc1nc2cc3c(cc2s1)C1(CO3)C(=O)Nc2ccccc21` (stereo not drawn), over 250 °C. On to `CCCc1n[nH]c2ccc(C(=O)O)cc12`, for which the melting point is 296 to 299 °C.

Compound `NC(=O)c1ncn2c1CN(C(=O)N1CCOCC1)c1ccccc1-2` came in with a melting point of 220 to 221 °C. Under `COc1ccc(C=O)c(Cl)c1O` stands 204 to 206 °C; under `Cc1cc(C#N)cc(C)c1Oc1cc(Cl)nc(Cl)n1`, 208 to 210 °C.

`COC(=O)CCn1c(C(=O)O)c(C)c2cc(C)ccc21`: the melting point turned out to be 169 °C. Next, `Cc1nccn1CCCC1CCc2onc(-c3ccccc3)c2C1=O` (stereo not drawn): 97 to 99 °C; `CN(C(=O)On1ccnn1)c1ccccc1`: 105 to 106 °C. As for `ON=C1CCc2c(cccc2OCC(O)CN2CCN(C(c3ccccc3)c3ccccc3)CC2)C1` (stereo not drawn), the melting point is 177 °C. With `CC(=O)c1ccc(NS(=O)(=O)c2ccc3c(c2)-c2c(nc(C)[nH]c2=O)CC3)cc1`, the melting point is over 240 °C.

With `CC(c1ccccc1)N1C(=O)NCc2c(-c3ccccc3)cccc21` (stereo not drawn), the melting point was in the range of 136 to 138 °C. Under `N#Cc1ccc(OCCCCCOc2ccc(-c3cc4cc(C#N)ccc4o3)cc2)cc1` stands 163 to 166 °C; under `COc1ccc(N2CCN(c3c(C)c(C)c4c(c3C)OC(C)(C)C4c3ccc(C)cc3)CC2)cc1` (stereo not drawn), 160 to 162 °C. Next, `CC(=O)Nc1nc(CCc2ccc(N)cc2)c(C(=O)Nc2ccccc2)s1`: 104 to 105 °C; `CC(C)C[C@H](NC(=O)[C@@H](S)Cc1ccccc1)C(=O)O`: 67 to 71 °C; `NC(Cc1c2ccccc2cc2ccccc12)(C(=O)O)C1CC(C(=O)O)C1` (stereo not drawn): 213 to 216 °C. Next, `Cc1ccc2c(C(=O)C(F)(F)F)c[nH]c2c1`: 216 to 218 °C; `COc1ccc(C2CCCN(C(=O)C(F)(F)F)C2)cc1N` (stereo not drawn): 88 °C; `CC12CCC3C(CCC4C(O)CCCC43C)C1CCC2OC1CCCCO1` (stereo not drawn): 167 to 170 °C. With `Cc1c(C(=O)O)cnn1-c1ccc(OC(F)(F)F)cc1`, the melting point fell in the range of 176 to 178 °C. The compound `CCOC(=O)c1ccc2cncc(I)c2n1` came in with a melting point of 135 to 137 °C. Under `O=c1[nH]c(=O)n(C2COC(CO)C2CO)cc1C=CBr` (stereo not drawn) stands 142 to 143 °C; under `O=C1C(=O)c2ccccc2C2=C1SCC(CN1CCN(c3ccc(F)cc3)CC1)O2` (stereo not drawn), 180 to 182 °C. Under `Cc1c(Cl)cccc1S(=O)(=O)Nc1ccc2occ(C)c2c1` stands 120 °C; under `N#CCCCCCCCCn1nnc(-c2ccccc2)c1-c1ccccc1`, 77 to 78 °C; under `O=C1Nc2ccc(-c3ccc(Cl)cc3)cc2C1=O`, 246 to 252 °C. Under `COc1cc(OCC(=O)N(C)C)c(/C=C/C(=O)c2ccc(C(=O)O)cc2)cc1-c1cccs1` stands 197 to 198 °C. With `CC1=Nc2ccccc2CC(c2ccncc2)N1C` (stereo not drawn), the melting point was 159 to 161 °C. Under `CCCc1nc(-n2cccc2)c(C(=O)OC)[nH]1` stands 135 to 138 °C; under `CCOC(=O)Cc1[nH]c(C(=O)c2ccccc2)c(C)c1C(=O)OCC`, 152 to 154 °C; under `Cc1ccc(-c2c(NS(=O)(=O)c3ccc(C(C)(C)C)cc3)nc(NCCOC3CCCCO3)nc2OCCOc2ncc(Br)cn2)cc1` (stereo not drawn), 65 to 69 °C. Under `CCC1(Cc2ccccc2)CCNC1=O` (stereo not drawn) stands 89 to 90 °C; under `CCCC(=O)OC(C)OC(=O)NC1(C(=O)O)CC1` (stereo not drawn), 90.4 to 93.4 °C; under `O=C1c2cc(N3CCN(Cc4ccccc4)CC3)ccc2OC12CC2`, 125 to 126 °C. Next, `O=C(Nc1ccc(C(=O)N2Cc3cccn3Cc3ccccc32)cc1)c1ccccc1C(F)(F)F`: 226 to 228 °C. In turn, `CC(=O)NC[C@H]1CN(c2cc(F)c(N3CCC(Cc4noc(C)n4)CC3)c(F)c2)C(=O)O1` had a melting point of 134 to 136 °C. Next, `CC(C)c1nc(C(c2ccccc2)c2ccccc2)cc(-c2ccc(F)cc2)c1CO`: 138 to 140 °C; `CN(C)C1CCCCCCCCCCC1N(C)C(=O)c1ccc(C(F)(F)F)cc1` (stereo not drawn): 69 to 70 °C. As for `COc1cccc(CCNc2nc(N)n3nc(-c4ccco4)nc3n2)c1`, the melting point was in the range of 172 to 174 °C. The compound `Cc1ccc(Cl)c(Nc2ccccc2C(=O)N(O)Cc2ccccc2)c1Cl` registered a melting point of 133 to 135 °C. Under `CCc1c(CCN2CCC(c3noc4cc(F)ccc34)CC2)sc2c1NC(=O)CCC2` stands 115 to 117 °C; under `Cc1oc(-c2ccccc2)nc1COc1ccc(CON=C(CCCCCCCC(=O)O)c2ccccc2)cc1`, 67 to 68 °C. For the compound `Oc1ccc(-c2nc3cc(O)cc(-c4ccccc4)c3o2)cc1`, the melting point is 92 °C. In turn, `Cc1cc(C(C)N(O)C(N)=O)c(C)o1` (stereo not drawn) yielded a melting point of 145 to 146 °C.

The compound `N#Cc1cnc2ccsc2c1Nc1ccc(Cl)cc1Cl` gave a melting point of 198 to 200 °C.

In the case of `CC1CCN(C2=NCC(=O)N(C)c3ccccc32)CC1`, the melting point lay within 106 to 108 °C.

Compound `COCC(=O)Nc1nc2ccc(F)cc2s1` had a melting point of 139 to 140 °C. Under `CCOC(=O)C(=NOC)c1nc(Cl)cc(NC=O)n1` stands 116 to 119 °C. The compound `CC(=O)N1Cc2c(n(-c3cccc(Cl)c3)c3ncccc3c2=O)C1` yielded a melting point of 170 to 173 °C. As to `CCOCc1c2c(cc3c(=O)cc(C(=O)O)oc13)CCCC2`, the melting point came to 239 °C. For the compound `CN1CCC2(CC1)OC(c1ccc(Cl)cc1)C1CCCCN12` (stereo not drawn), the melting point lay in the range of 122 to 124 °C. As for `CCc1c(CCNC(=O)CCCC(=O)NCCc2ccc(OC)c(OC)c2CC)ccc(OC)c1OC`, the melting point lay within 171 to 173 °C. Next, `Cc1cc(C2=NOC(c3cc(Cl)cc(Cl)c3)(C(F)(F)F)C2)ccc1C(=O)N(C)C1CCCS1` (stereo not drawn): 146 to 151 °C. `CS(=O)(=O)c1ccc(-c2cc(O)sc2-c2ccc(F)cc2)cc1` displayed a melting point of 60 °C.

In turn, `CNC(=O)n1sc(OC(C)C)nc1=O` gave a melting point of 95 °C. The compound `COC(=O)C1=C(Cc2ccccc2)C(=O)NCC1` came in with a melting point of 104 to 108 °C. Under `CC(CN1CC(=O)N(CN2CCN(c3ccccc3)CC2)C(=O)C1)N1CC(=O)N(CN2CCN(c3ccccc3)CC2)C(=O)C1` (stereo not drawn) stands 94 to 101 °C; under `COC(=O)C(O)=CC(=O)c1cn(Cc2ccc(F)cc2)c(=O)n(Cc2ccc(F)cc2)c1=O`, 171 to 173 °C. Under `Cc1ncc(CN2CC=C(C#Cc3ccccc3)CC2)c(N)n1` stands 187 to 188 °C; under `COC(=O)Cc1ccc(C#C[Si](C)(C)C)cc1`, 55 to 58 °C.

For `COc1cc(NC(=O)C2C(=O)N(C)C(=S)N(C)C2=O)ccc1Oc1ccc(C(F)(F)F)cc1Cl`, the melting point was 178 to 182 °C. Next, `CC(C)(O)C(O)c1ccc(-c2ccc(C(CC3CCOCC3)c3ccc(S(C)(=O)=O)c(Cl)c3)[nH]2)nc1` (stereo not drawn): 138 to 140 °C. Under `N#Cc1c(N2CCN(C(=O)c3cnccn3)CC2)c2ccccc2n(Cc2ccc(F)cc2)c1=O` stands 145 to 156 °C; under `CSc1ccc(-c2c(C(F)(F)F)n(C)[nH]c2=O)cc1`, 142 to 146 °C; under `O=P(O)(O)C(c1cccc(C(F)(F)F)c1)c1cccc(C(F)(F)F)c1`, 191 to 193 °C. Next, `O=C(CN1CC(S(=O)Cc2ccc(C(=O)O)cc2)C1=O)NCCCCCCc1ccc(Cl)cc1` (stereo not drawn): 195 to 197 °C; `CSCCC(N)C(=O)NC(CCSC)C(=O)O` (stereo not drawn) (H-Met-Met-OH; configuration not given here): 234 to 236 °C; `CCOc1ccc(C)c(N(Cc2ccccc2)C(=O)C(C)(C)Br)c1`: 87 to 88 °C. Consider `O=C(O)c1ccc2cc(-c3ccc(OCC(O)CO)c(C45CC6CC(CC(C6)C4)C5)c3)ccc2c1` (stereo not drawn), for which the melting point came out at 278 °C. Next, `CCOc1nn(-c2ccc(C(F)(F)F)cn2)cc1CCCCOc1cc(CCC(=O)O)n(-c2ccccc2)n1`: 138 to 139 °C. Under `CC(=O)N1CCC(=O)C(C(c2ccc(F)cc2)c2ccc(F)cc2)C1` (stereo not drawn) stands 146 to 147 °C; under `CC(C)(C)OC(=O)CN1C(=O)C(=O)c2ccccc21`, 119 to 121 °C. With `COC=C(C(=O)OC)c1ccccc1CSc1ccc2ccccc2c1`, the melting point was 52 to 58 °C. Under `CCCCCCCCCCCCCCC(C)(C(=O)O)C(=O)O` stands 83 to 85 °C. `CN1CC(c2cc(CCc3ccc(F)cc3)ccn2)=C(O)C1=O`: the melting point is 167 to 168 °C. Next, `COc1cc(Nc2nccc(-c3ccc([N+](=O)[O-])cc3)n2)cc(OC)c1OC`: 196 °C; `COc1cc2c(cc1F)C(c1ccccc1Cl)=NC1=C(C)NNC1=N2`: 217 to 218 °C.

`CC1=NC(C)(C)N(O)C1(C)C` showed a melting point of 127 to 128 °C. Next, `COc1ccc(NN=C(Sc2cc(C)cc(C)c2)C(C)=O)cc1`: 165 to 167 °C; `CNCCCn1c2ccc(O)cc2c2c3c(c(-c4ccccc4)cc21)C(=O)NC3=O`: 265 to 268 °C; `CCCC12C3=CCC4CC(OC(C)=O)CCC4(C)C3CCC1(C)C(C(C)CCCC(C)C)CC2O` (stereo not drawn): 104 °C.

`CN(C)c1ccc(Cn2nnc(-c3ccc(OC(=O)C(C)(C)C)c(N(C)C)c3)n2)cc1` came in with a melting point of 73 to 74 °C. Next, `COc1ccc(-c2ccc(C=CC(=O)O)s2)cc1C(C)(C)C`: 218 to 219 °C. Next, `CCCCCCCCCCCCCCCCSc1cc(O)c(Sc2nnnn2-c2ccccc2)cc1O`: 129 to 131 °C. Under `Cn1ncc2[nH]c3ccc(Cc4ccccc4C(N)=O)cc3c(=O)c21` stands 272 °C. Regarding `Fc1ccc(-c2ncn(CC3CC3)c2-c2ccncc2)cc1`, the melting point is 162 °C.
